Experimental data: patent US8906383B2, “T cell receptor having binding affinity for a peptide-MHC complex and uses thereof” (King's College London, priority 2007, dated 2014)

Assays:
[1] = test system: CD8 T cells from HLA-A2+ type 1 diabetic patients; experiment: Interferon-gamma cytokine ELISPOT with patient PBMCs; type: cell-based, human; conditions: PBMCs of patients with new-onset type 1 diabetes and HLA-A2; peptide 10 μM; FIG. 8a
Method: The following ELISPOT assays were carried out using the methods substantially as described in Arif et al., (2004) J Clin Invest 113: 451-63.
Fresh peripheral blood mononuclear cells (PBMCs) in RPMI 1640 supplemented with antibiotics (TC medium; all Life Technologies) and 10% human AB serum (Harlan SeraLab, Leicestershire, UK) were dispensed into 48-well plates at a density of 2×10^6 cells in 0.5 ml supplemented with peptide to a final concentration of 10 μM and incubated at 37° C., 5% CO2, tilted by 5°. Control wells comprised TC medium containing an equivalent concentration of peptide diluent alone (DMSO). On day +1, 0.5 ml pre-warmed TC medium/10% AB was added and on day +2, non-adherent cells were re-suspended using pre-warmed TC medium/2% AB, washed, brought to a concentration of 1×10^6 cells/300 μl and 100 μl dispensed in triplicate into wells of 96-well ELISA plates (Nunc Maxisorp, Merck, Poole, UK) pre-blocked with 1% BSA in PBS and pre-coated with monoclonal anti-IFN-γ capture antibody (U-Cytech, Utrecht, NL). After capture at 37° C., 5% CO2 for 7 hours, cells were lysed in ice cold water, plates washed in PBS/Tween 20 and spots developed according to the manufacturer's instructions. Plates were dried and spots of 80-120 μm counted in a BioReader 3000 (BioSys, Karben, Germany). […]

soluble HLA-A2 molecules = conditions: synthetic peptide; Chang et al., (2003) Tissue Antigens 62: 408-417; cited from earlier work

Sequence	CD8 T cell reactivity to PPI peptide by interferon-gamma ELISPOT [1]	Capability of being loaded in-vitro by soluble HLA-A2 (soluble HLA-A2 molecules)
WGPDPAAA [PPI17-24]	demonstrate the presence of CD8 T cells specific for	–
ALWGPDPAAA [PPI15-24]	demonstrate the presence of CD8 T cells specific for	capable of being loaded in-vitro by soluble HLA-A2 molecules
